The numbers were not newly measured in US10954336B2 (SCRUM Co., Ltd., priority 2017, dated 2021), which cites them from elsewhere.

For the series the following is noted: comparison / conventional substances.

On to `C[C@H](O)C(=O)O` [L-lactic acid], for which the Acidity entry is given as “yes”.
